target: T1, recombinant rat mGluR5 (Rattus norvegicus, UniProt P31424); test: Functional calcium flux assay (FLIPR), antagonist evaluation against glutamate-evoked [Ca2+]i increase; format: cell-based; details: Table 1; HEK293 cells stably expressing recombinant rat mGluR5; 15 min incubation of test compound, then submaximal glutamate; read-out: IC50 value (FLIPR assay)
T1 construct: expressed in transfected cells
Outline: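 HEK293 cells stably expressing rat mGluR5 were loaded with Fluo-8, preincubated 15 min with compound, then stimulated with submaximal glutamate; [Ca2+]i read by FLIPR. Inhibition relative to glutamate alone was fitted to a 4-parameter logistic to derive IC50.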

T1 sequence (P31424 21-1203): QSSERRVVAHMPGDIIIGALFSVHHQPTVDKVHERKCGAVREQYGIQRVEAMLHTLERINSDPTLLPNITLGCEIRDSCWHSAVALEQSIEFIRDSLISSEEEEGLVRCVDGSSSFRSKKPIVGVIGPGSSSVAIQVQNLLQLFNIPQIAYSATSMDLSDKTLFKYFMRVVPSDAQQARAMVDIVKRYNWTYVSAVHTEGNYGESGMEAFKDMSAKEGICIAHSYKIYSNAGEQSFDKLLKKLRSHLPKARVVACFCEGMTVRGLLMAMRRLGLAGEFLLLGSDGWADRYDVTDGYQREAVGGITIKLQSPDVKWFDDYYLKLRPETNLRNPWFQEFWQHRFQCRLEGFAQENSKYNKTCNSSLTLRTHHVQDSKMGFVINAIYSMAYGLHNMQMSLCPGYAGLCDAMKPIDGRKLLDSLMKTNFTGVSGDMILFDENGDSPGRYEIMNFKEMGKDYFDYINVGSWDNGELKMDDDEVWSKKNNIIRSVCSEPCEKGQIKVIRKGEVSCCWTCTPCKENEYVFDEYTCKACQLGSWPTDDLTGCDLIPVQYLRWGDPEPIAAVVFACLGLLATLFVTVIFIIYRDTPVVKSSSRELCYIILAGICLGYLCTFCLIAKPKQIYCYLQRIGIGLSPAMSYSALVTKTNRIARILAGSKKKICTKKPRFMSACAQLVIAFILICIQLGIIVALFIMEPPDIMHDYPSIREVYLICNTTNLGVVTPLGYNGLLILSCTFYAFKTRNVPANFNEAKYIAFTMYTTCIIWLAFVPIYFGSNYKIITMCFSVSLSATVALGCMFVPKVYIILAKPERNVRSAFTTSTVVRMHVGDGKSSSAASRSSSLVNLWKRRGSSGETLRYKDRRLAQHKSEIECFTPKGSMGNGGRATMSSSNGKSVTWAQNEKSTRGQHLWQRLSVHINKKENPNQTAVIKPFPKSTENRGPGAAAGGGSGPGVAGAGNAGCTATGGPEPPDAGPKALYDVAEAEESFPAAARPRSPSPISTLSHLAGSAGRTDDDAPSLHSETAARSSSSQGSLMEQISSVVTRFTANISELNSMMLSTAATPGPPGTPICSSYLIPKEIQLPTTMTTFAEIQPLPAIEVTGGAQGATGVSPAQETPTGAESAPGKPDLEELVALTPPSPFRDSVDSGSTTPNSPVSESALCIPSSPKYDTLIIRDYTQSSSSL

| IC50 [nM] | Structure (SMILES) |
| --- | --- |
| 1000 to 5000 | FC(F)(F)Oc1ccc(-n2cc(C#Cc3cnccn3)cn2)cc1 [Compound 65, 2-((1-(4-(trifluoromethoxy)phenyl)-1H-pyrazol-4-yl)ethyny)pyrazine] |
| ≤ 500 | Fc1ccc(-n2cc(C#Cc3ccccn3)cn2)nc1 [Compound 27, 5-fluoro-2-(4-(pyridin-2-ylethynyl)-1H-pyrazol-1-yl)pyridine] |
| 1000 to 5000 | N#Cc1cc(F)cc(-n2cc(C#Cc3ccccc3)cn2)c1 [Compound 74, 3-fluoro-5-(4-(phenylethynyl)-H-pyrazol-1-yl)benzonitrile] |
| 1000 to 5000 | COc1c(C#Cc2ccccn2)c(C)nn1-c1ccc(OC(F)(F)F)cc1 [Compound 10, 2-((3-methyl-5-methoxy-1-(4-(trifluoromethoxy)phenyl)-1H-pyrazol-4-yl)ethynyl) pyridine] |

same assay, conditions: Table 2; HEK293 cells stably expressing recombinant rat mGluR5; 15 min incubation of test compound, then submaximal glutamate; read-out: IC50 (FLIPR assay)

| IC50 [nM] | Structure (SMILES) |
| --- | --- |
| ≤ 500 | Cc1cc(C#Cc2cccnc2)nn1-c1cc(F)cc(C#N)c1 [Compound 98, 3-fluoro-5-(5-methyl-3-(pyridin-3-ylethynyl)-1H-pyrazol-1-yl) benzonitrile] |
| ≤ 500 | N#Cc1cc(F)cc(-n2ccc(C#Cc3ccnc(Cl)c3)n2)c1 [Compound 108, 3-(3-((2-chloropyridin-4-yl)ethynyl)-1H-pyrazol-1-yl)-5-fluorobenzonitrile] |
| ≤ 500 | N#Cc1cc(F)cc(-n2ccc(C#Cc3ncccn3)n2)c1 [Compound 109, 3-fluoro-5-(3-(pyrimidin-2-ylethynyl)-1H-pyrazol-1-yl)benzonitrile] |
